The values below are quoted from earlier work in patent publication US6184255A, “Pharmaceutical composition comprising coenzyme Q10” (Kaneka Corporation, priority 1996, dated 2001).

For the data set the following is noted: oral, considerably greater amount than actually needed.

For the compound `COC1=C(OC)C(=O)C(C/C=C(\C)CC/C=C(\C)CC/C=C(\C)CC/C=C(\C)CC/C=C(\C)CC/C=C(\C)CC/C=C(\C)CC/C=C(\C)CC/C=C(\C)CCC=C(C)C)=C(C)C1=O` [Coenzyme Q10], the adverse gastrointestinal reactions entry was “adverse gastrointestinal reactions such as epigastric discomfort, anorexia, nausea, and diarrheas”.
